# Experimental data: patent US12668596B2, “Process for crystallizing nalmefene hydrochloride” (RHODES TECHNOLOGIES, priority 2021, dated 2026)
# Where a name gives a salt, the structure may show the parent alone.
# Experiment: Solubility studies of nalmefene HCl monohydrate in aqueous HCl (visual dissolution at 80° C.)
# Format: physicochemical
# Description: A series of nalmefene HCl monohydrate solubility experiments were carried out in aqueous HCl. Nalmefene HCl monohydrate (520 mg) was charged to a 4 mL capped vial, followed by solvent (0-6 M HCl, 780 μL, 1.5 volumes) and heated to 80° C. on a pie-block. Increasing amounts of solvent were added periodically until dissolution was achieved (determined visually).
# Seven dissolution experiments were carried out.
smiles,measurement,setting,value
"C=C1CC[C@@]2(O)[C@H]3Cc4ccc(O)c5c4[C@@]2(CCN3CC2CC2)[C@H]1O5 [Nalmefene HCl, 17-(cyclopropylmethyl)-4,5α-epoxy-6-methylenemorphinan-3,14-diol]",Volumes needed to dissolve nalmefene HCl at 80° C.,"Sample No. 0, HCl molarity 0 (water), 520 mg",Fewer than 1.5 Volumes
same,Volumes needed to dissolve nalmefene HCl at 80° C.,"Sample No. 1, HCl molarity 1, 520 mg",1.5 Volumes
same,Volumes needed to dissolve nalmefene HCl at 80° C.,"Sample No. 2, HCl molarity 2, 520 mg",2.5 Volumes
same,Volumes needed to dissolve nalmefene HCl at 80° C.,"Sample No. 3, HCl molarity 3, 520 mg",6.5 Volumes
same,Volumes needed to dissolve nalmefene HCl at 80° C.,"Sample No. 4, HCl molarity 4, 520 mg",6.5 Volumes
same,Volumes needed to dissolve nalmefene HCl at 80° C.,"Sample No. 5, HCl molarity 5, 520 mg",4.0 Volumes
same,Volumes needed to dissolve nalmefene HCl at 80° C.,"Sample No. 6, HCl molarity 6, 520 mg",3.5 Volumes
same,HCl molarity at which solubility is at a minimum,aqueous HCl 0-6 M,3-4 M HCl
